For one assay, the system named is AMPK. Nature of the assay: Drug affinity responsive target stability (DARTS), AMPK. Conditions: 0.1–100 μM GENI, protein: pronase 50:1. The format is binding. As to the method:
Cells were lysed by RIPA lysis buffer, and the protein concentration was measured. The lysate was divided into six groups. Before incubation with protease (protein: pronase = 50:1 w/w for PI3K and AMPK detection, 5:1 for MAPK detection, 100:1 for p53 detection) for 25 min in 25 °C, 0.1–100 μM GENI was added to lysates and incubated for 2 h at room temperature. The samples were mixed with loading buffer and then separated on 8% SDS-PAGE for immunoblotting analysis.

For assay [1], the system named is D-gal-induced AD mice. The assay can be described thus: Behaviour tests in D-gal-induced AD mice. The format is in vivo. As to the method: (§1) Each group comprised 10 mice. […] Dosing lasted for 10 weeks. […] The mice were sacrificed after 10 weeks of administration.
The Y-maze is mainly used to study the spatial working memory ability of rodents. The Y-maze consisted of three equal-length arms (50 cm × 18 cm × 35 cm), and the angle between each two arms was 120 degrees. The mice were placed at the end of any arm of the Y-maze and allowed to explore freely for 8 min. The behavioral changes including the total number of entries and alternation (successively entering all three arms of the Y-maze once in turn) were recorded. Percentage altercation = alternation/(entries-2) × 100%. The Y-maze could effectively reflect the ability of animals to recognize and remember novel environments.
NOR was used to detect memory in rodents. We prepared a 40 × 40 × 40 cm square box, camera equipment, and behavioral analysis software. We chose three objects A, B, and C, where objects A and B were exactly the same, and object C was very different from objects A and B. After the start of the experiment, the mice were allowed to acclimate freely in the experimental apparatus for 10 min. Objects A and B were placed into the box, and the mice were allowed to explore for 5 min. We then recorded the exploration time and times. After 1 h, A and C or B and C were placed into the box. After letting the mice explore for 5 min, we recorded the exploration time of the original object and the new object. Discrimination index = exploration time of new objects/total exploration time × 100%.
The MWM installation consisted of a circular pool (120 cm in diameter and 50 cm in height), camera equipment, and a computer analysis system. In the first stage, the platform position was fixed, and mice were placed into the pool from any three of the four origins on the pool facing away from the pool wall. The time when it took for the mouse to find the platform within 120 s, called escape latency, was recorded. The training period lasted 4 days. The escape latency of the mice was recorded daily, and the average value was used as an index to evaluate the ability of learning and memory. On the 5th day, the platform was evacuated by the experimenter. The mice were placed against the platform into the water from any water entry point, and they were allowed to swim freely for 60 s. We then recorded the number of times that they crossed the platform.
The rationale for the three-box social test is based on the fact that mice are naturally gregarious and tend to explore new objects. The experimental device consisted of three rectangular boxes, each with a size of 19×45 cm, with a channel in the middle to allow the three boxes to connect with one another. Two metal cages of the same size were placed in the centre of the left and right boxes. Firstly, the mice were placed in the box for 10 min. Secondly, stranger 1 mouse was randomly placed in the metal cage in the left or right box, and the metal cage in the other box was empty. The experimental mice were placed in the box for 10 min. The number and duration of direct contact between the experimental mice and stranger 1 were recorded. Thirdly, strange 2 mice were placed in the empty metal cage of the second stage experiment and then recorded for 10 min. We observed the time and number of contacts between stranger 1 and stranger 2 and calculated the social preference and sociability index.

A further assay has as its system PC12 cells. The assay can be described thus: Total SOD enzymatic activity assay in PC12 cells. The assay is classed as cell-based. To be noted: compared with the H2O2-treated group. As to the method:
To determine ROS levels in PC12 cells, we seeded 5 × 10^4 PC12 cells in each well of a 24-well plate. Cells were treated with RES (10 μM) or GENI (1, 3, and 10 μM) for 24 h, followed by 0.8 mM H2O2 for 1 h. DCFH-DA (2,7-dichlorodihydrofluorescein diacetate, final concentration, 10 μM) was then added to each well and incubated for 30 min. Cells were washed with PBS to remove extracellular DCFH-DA, and intercellular ROS was detected by using a SpectraMax M3 multimode microplate reader (Molecular Devices Corporation, San Jose, CA, USA) at an excitation wavelength of 488 nm and an emission wavelength of 525 nm. Meanwhile, DCF in PC12 cells was observed using a fluorescence microscope (HCS, Thermo Fisher, Science, Waltham, MA, USA). To detect malondialdehyde (MDA) content and total SOD enzymatic activities in PC12 cells, we seeded 2 × 10^6 PC12 cells in 60 mm dishes containing 5 mL of DMEM and cultured the cells for 24 h. PC12 cells were treated with RES (10 μM) or GENI (3 or 10 μM) for 24 h and then treated with 0.8 mM H2O2 for 1 h to determine the MDA content and total superoxide dismutase (SOD) activities. Cells were lysed and centrifuged. […] MDA quantification and total SOD activities were determined using MDA and SOD enzyme activity assay kits (Nanjing Jiancheng Bioengineering Institute, Nanjing, China) following the manufacturer’s instructions.

The subject of assay [2] is D-gal-induced AD mice. Nature of the assay: Immunohistochemistry of brain in D-gal-induced AD mice. The format is in vivo. To be noted: compared with the D-gal group. The protocol: as §1
Firstly, the three mice of each group were subjected to heart perfusion at the end of the animal experiment, and the whole brain was removed and placed in 15 mL of 4% paraformaldehyde and stored at 4 °C for 24 h. Secondly, we changed 4% paraformaldehyde into 15% sucrose solution and stored the solution at 4 °C for 24 h. We then changed the solution to 30% sucrose solution to dehydrate for 2 days. Thirdly, the mouse brain tissue was embedded in a cryo-embedding medium, and about 80 slices with a thickness of 20 μm were cut in the hippocampus using a cryostat (Thermal Fisher, Shanghai, China). The sections of mice in each group were immunohistochemically stained with primary antibodies, such as neuronal nuclear anti gen (NeuN), ionized calcium-binding adapter molecule 1 (Iba-1), inducible nitric oxide synthase (iNOS, pro-inflammatory factors), synaptophysin (Syp), and glial fibrillary acidic protein (GFAP), and secondary antibody. The product number and usage ratios of primary and secondary antibodies are detailed in Supplementary Table S4. Finally, the sections were observed under an upright two-photon confocal microscope (Olympus BX61, Tokyo, Japan) and recorded by a camera. The pictures were digitized with ImageJ software V1.8.0.112 (National Institutes of Health, Bethesda, MD, USA).

The mark [3] stands for this setting: GENI administration group compared with the D-gal model group.
Where [4] appears, read: DON 3 mg/kg, GENI 12.5, 25, 50 mg/kg groups.

Consider `CC(C)CCOC(=O)C1=CO[C@@H](O[C@@H]2O[C@H](CO)[C@@H](O)[C@H](O)[C@H]2O)C2C(CO)=CCC12` (stereo partly shown) [GENI, Geniposidic 4-isoamyl ester], for which the “stability of AMPK against pronase (DARTS)” value in the assay on AMPK is “dramatically enhanced the stability”. Further, the “rate of alternating arms in the Y maze test” value in the assay on D-gal-induced AD mice [1] (GENI 25 and 50 mg/kg i.g., versus D-gal group) was “significantly increase”. In the assay on D-gal-induced AD mice [1] (setting [3]), the “escape latency in the Morris water maze test” value was “significantly reduced” and the “number of crossing platforms in the Morris water maze test” value is listed as “significantly increased”. Besides, in the assay with D-gal-induced AD mice [1] (GENI i.g., versus D-gal group), the “cognitive index and object recognition index in the NOR experiment” value is “significantly increased”. Besides, in the assay on D-gal-induced AD mice [1] (GENI-administered groups), the “sociability and social preferences (three-box social experiment)” value was “significant social skills and social preferences”. In addition, the “optimal dose for anti-AD effect” value with D-gal-induced AD mice [1] (comparable to the effect of DON at a dose of 3 mg/kg) turned out to be 25 mg/kg. In the assay with PC12 cells, the “total SOD activity” value is “increased”. For the same molecule, in the assay with D-gal-induced AD mice [2], the “activation of astrocytes (GFAP) in the cerebral cortex” value is on record as “decreased”, the “activation of microglia (Iba-1) in the cerebral cortex” value is reported as “decreased” and the “expression of iNOS in the cerebral cortex” value is “decreased”. Further, in the assay with D-gal-induced AD mice [2] (setting [4]), the “Syp intensity in the cerebral cortex” value is “significantly increased”; the “mature neurons (NeuN) in the cerebral cortex and hippocampus” value was “significantly increased”.
